ChEMBL document CHEMBL1143202
Activity calls are given as the source filed them. No cut-off for these calls is given here.

Key:
[1] = species: Rattus norvegicus; test: Inhibition of NADH-cytochrome c reductase in Wistar Albino rat liver mitochondria at 100 uM relative to control; parameters: scale not given: the % may be the effect or the level left
[2] = species: Rattus norvegicus; test: Inhibition of NADH-cytochrome c reductase in Wistar Albino rat liver mitochondria at 200 uM relative to control; parameters: scale not given: the % may be the effect or the level left
[3] = species: Rattus norvegicus; test: Inhibition of succinate oxidase in Wistar Albino rat liver mitochondria at 25 uM relative to control; parameters: scale not given: the % may be the effect or the level left
[4] = species: Rattus norvegicus; test: Inhibition of succinate oxidase in Wistar Albino rat liver mitochondria at 50 uM relative to control; parameters: scale not given: the % may be the effect or the level left
[5] = species: Rattus norvegicus; test: Inhibition of succinate oxidase in Wistar Albino rat liver mitochondria at 75 uM relative to control; parameters: scale not given: the % may be the effect or the level left
[6] = species: Rattus norvegicus; test: Inhibition of succinate oxidase in Wistar Albino rat liver mitochondria at 100 uM relative to control; parameters: scale not given: the % may be the effect or the level left
[7] = species: Rattus norvegicus; test: Inhibition of succinate oxidase in Wistar Albino rat liver mitochondria at 200 uM relative to control; parameters: scale not given: the % may be the effect or the level left
[8] = species: Rattus norvegicus; test: Inhibition of succinate dehydrogenase in Wistar Albino rat liver mitochondria at 25 uM relative to control; parameters: scale not given: the % may be the effect or the level left
[9] = species: Rattus norvegicus; test: Inhibition of succinate dehydrogenase in Wistar Albino rat liver mitochondria at 50 uM relative to control; parameters: scale not given: the % may be the effect or the level left
[10] = species: Rattus norvegicus; test: Inhibition of succinate dehydrogenase in Wistar Albino rat liver mitochondria at 75 uM relative to control; parameters: scale not given: the % may be the effect or the level left
[11] = species: Rattus norvegicus; test: Inhibition of succinate dehydrogenase in Wistar Albino rat liver mitochondria at 100 uM relative to control; parameters: scale not given: the % may be the effect or the level left
[12] = species: Rattus norvegicus; test: Inhibition of succinate dehydrogenase in Wistar Albino rat liver mitochondria at 200 uM relative to control; parameters: scale not given: the % may be the effect or the level left
[13] = species: Rattus norvegicus; test: Inhibition of succinate-cytochrome c reductase in Wistar Albino rat liver mitochondria at 50 uM relative to control; parameters: scale not given: the % may be the effect or the level left
[14] = species: Rattus norvegicus; test: Inhibition of succinate-cytochrome c reductase in Wistar Albino rat liver mitochondria at 75 uM relative to control; parameters: scale not given: the % may be the effect or the level left
[15] = species: Rattus norvegicus; test: Inhibition of succinate-cytochrome c reductase in Wistar Albino rat liver mitochondria at 100 uM relative to control; parameters: scale not given: the % may be the effect or the level left
[16] = species: Rattus norvegicus; test: Inhibition of succinate-cytochrome c reductase in Wistar Albino rat liver mitochondria at 200 uM relative to control; parameters: scale not given: the % may be the effect or the level left
[17] = species: Rattus norvegicus; test: Inhibition of cytochrome c oxidase in Wistar Albino rat liver mitochondria at 25 uM relative to control; parameters: scale not given: the % may be the effect or the level left
[18] = species: Rattus norvegicus; test: Inhibition of cytochrome c oxidase in Wistar Albino rat liver mitochondria at 50 uM relative to control; parameters: scale not given: the % may be the effect or the level left
[19] = species: Rattus norvegicus; test: Inhibition of cytochrome c oxidase in Wistar Albino rat liver mitochondria at 75 uM relative to control; parameters: scale not given: the % may be the effect or the level left
[20] = species: Rattus norvegicus; test: Inhibition of cytochrome c oxidase in Wistar Albino rat liver mitochondria at 100 uM relative to control; parameters: scale not given: the % may be the effect or the level left
[21] = tested on: Liver; test: Reduction of cytochrome c in rat liver mitochondria in presence of catalase at 200 uM; assay type: functional; parameters: scale not given: the % may be the effect or the level left
[22] = species: Rattus norvegicus; test: Inhibition of cytochrome c oxidase in Wistar Albino rat liver mitochondria at 200 uM relative to control; parameters: scale not given: the % may be the effect or the level left
[23] = species: Rattus norvegicus; test: Inhibition of ATPase in Wistar Albino rat livers disrupted mitochondria at 25 uM relative to control; parameters: scale not given: the % may be the effect or the level left
[24] = species: Rattus norvegicus; test: Inhibition of ATPase in Wistar Albino rat livers disrupted mitochondria at 50 uM relative to control; parameters: scale not given: the % may be the effect or the level left
[25] = species: Rattus norvegicus; test: Inhibition of ATPase in Wistar Albino rat livers disrupted mitochondria at 75 uM relative to control; parameters: scale not given: the % may be the effect or the level left
[26] = species: Rattus norvegicus; test: Inhibition of ATPase in Wistar Albino rat livers disrupted mitochondria at 100 uM relative to control; parameters: scale not given: the % may be the effect or the level left
[27] = species: Rattus norvegicus; test: Inhibition of ATPase in Wistar Albino rat livers disrupted mitochondria at 200 uM relative to control; parameters: scale not given: the % may be the effect or the level left
[28] = species: Rattus norvegicus; test: Inhibition of ATPase in Wistar Albino rat livers intact mitochondria at 25 uM relative to control; parameters: scale not given: the % may be the effect or the level left
[29] = tested on: Liver; test: Reduction of cytochrome c in rat liver mitochondria in presence of NADH at 200 uM; assay type: functional
[30] = species: Rattus norvegicus; test: Inhibition of ATPase in Wistar Albino rat livers intact mitochondria at 50 uM relative to control; parameters: scale not given: the % may be the effect or the level left
[31] = species: Rattus norvegicus; test: Inhibition of ATPase in Wistar Albino rat livers intact mitochondria at 75 uM relative to control; parameters: scale not given: the % may be the effect or the level left
[32] = species: Rattus norvegicus; test: Inhibition of ATPase in Wistar Albino rat livers intact mitochondria at 100 uM relative to control; parameters: scale not given: the % may be the effect or the level left
[33] = species: Rattus norvegicus; test: Inhibition of ATPase in Wistar Albino rat livers intact mitochondria at 200 uM relative to control; parameters: scale not given: the % may be the effect or the level left
[34] = species: Rattus norvegicus; test: Inhibition of ATPase in Wistar Albino rat livers intact mitochondria at 25 uM in presence of FCCP relative to control; parameters: scale not given: the % may be the effect or the level left
[35] = species: Rattus norvegicus; test: Inhibition of ATPase in Wistar Albino rat livers intact mitochondria at 50 uM in presence of FCCP relative to control; parameters: scale not given: the % may be the effect or the level left
[36] = species: Rattus norvegicus; test: Inhibition of ATPase in Wistar Albino rat livers intact mitochondria at 75 uM in presence of FCCP relative to control; parameters: scale not given: the % may be the effect or the level left
[37] = species: Rattus norvegicus; test: Inhibition of ATPase in Wistar Albino rat livers intact mitochondria at 100 uM in presence of FCCP relative to control; parameters: scale not given: the % may be the effect or the level left
[38] = species: Rattus norvegicus; test: Inhibition of ATPase in Wistar Albino rat livers intact mitochondria at 200 uM in presence of FCCP relative to control; parameters: scale not given: the % may be the effect or the level left
[39] = tested on: Liver; test: Reduction of cytochrome c in rat liver mitochondria in presence of EDTA at 200 uM; assay type: functional
[40] = tested on: Liver; test: Reduction of cytochrome c in rat liver mitochondria in presence of SOD at 200 uM; assay type: functional; parameters: scale not given: the % may be the effect or the level left
[41] = tested on: Liver; test: Reduction of cytochrome c in rat liver mitochondria in presence of deferoxamine at 200 uM; assay type: functional
[42] = tested on: Liver; test: Reduction of cytochrome c in rat liver mitochondria in presence of SOD and catalase at 200 uM; assay type: functional

`COc1c(O)cc2oc(-c3ccc(O)c(O)c3)cc(=O)c2c1O` was tested, and the Activity [1] was 40%, the Activity [2] was 19% and the Activity [3] was 87%. It also gave an Activity [4] of 83%, an Activity [5] of 86% and an Activity [6] of 77%. It also gave an Activity [7] of 77%, an Activity [8] of 71% and an Activity [9] of 69%. It also gave an Activity [10] of 78%, an Activity [11] of 50% and an Activity [12] of 51%. For the same compound, the Activity [13] was 23%, the Activity [14] was 12% and the Activity [15] was 29%. The Activity [16] was 18%, the Activity [17] was 98% and the Activity [18] was 104%. For the same compound, the Activity [19] was 102%, the Activity [20] was 96% and the Activity [21] was 15%. The Activity [22] was 82%, the Activity [23] was 103% and the Activity [24] was 102%. The Activity [25] was 105%, the Activity [26] was 94% and the Activity [27] was 90%. For the same compound, the Activity [28] was 99%, the Activity [29] was “Active” and the Activity [30] was 94%. For the same compound, the Activity [31] was 98%, the Activity [32] was 97% and the Activity [33] was 101%. For the same compound, the Activity [34] was 93%, the Activity [35] was 90% and the Activity [36] was 97%. The Activity [37] was 100%, the Activity [38] was 102% and the Activity [39] was “Active”. The Activity [40] was 46%, the Activity [41] was “inactive” and the Activity [42] was “inactive”.
